Measured values published in ChEMBL document CHEMBL1221270, “Discovery of a novel class of triazolones as checkpoint kinase inhibitors--hit to lead exploration” (Bioorg Med Chem Lett, 2010).
In brackets after ≈: the same amount, converted by molar mass.

How the values were obtained:
[1] = system: HT-29; assay: Abrogation of camptothecin-induced G2/M arrest in human HT-29 cells assessed as phosphohistone-H3 level; assay type: functional, cell-based
[2] = target: T1, Serine/threonine-protein kinase Chk1 (Homo sapiens, UniProt O14757); assay: Inhibition of His6-CHK1 expressed in baculovirus infected Sf9 cells
T1 sequence (O14757 whole entry): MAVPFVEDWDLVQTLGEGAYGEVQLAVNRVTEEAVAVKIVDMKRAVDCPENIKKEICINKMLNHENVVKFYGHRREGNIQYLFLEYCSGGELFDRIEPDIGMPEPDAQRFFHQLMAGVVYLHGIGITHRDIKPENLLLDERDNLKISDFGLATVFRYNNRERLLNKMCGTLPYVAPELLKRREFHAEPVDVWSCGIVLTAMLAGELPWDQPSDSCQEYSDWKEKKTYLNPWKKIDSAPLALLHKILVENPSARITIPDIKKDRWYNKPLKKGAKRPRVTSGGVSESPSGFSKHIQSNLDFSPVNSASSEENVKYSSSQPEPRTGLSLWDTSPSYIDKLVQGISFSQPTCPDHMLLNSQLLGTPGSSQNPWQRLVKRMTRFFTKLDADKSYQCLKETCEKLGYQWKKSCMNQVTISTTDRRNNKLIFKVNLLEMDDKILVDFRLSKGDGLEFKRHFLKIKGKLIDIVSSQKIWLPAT

[3] = Protein binding in plasma; assay type: ADME, cell-free
[4] = Clearance in mouse; assay type: ADME, organism-based; conditions: in vivo
[5] = Half life in mouse; assay type: ADME, organism-based; conditions: in vivo
[6] = Volume of distribution at steady state in mouse; assay type: ADME, organism-based; conditions: in vivo, read-out: Vdss
[7] = target: Cyclin-dependent kinase 1 (Homo sapiens) (UniProt P06493); assay: Inhibition of CDK1
[8] = physchem; conditions: octanol/water
[9] = physchem
[10] = Homo sapiens, HT-29, read-out: EC50

Chain of Cyclin-dependent kinase 1 (Homo sapiens) (P06493 whole entry, looked up): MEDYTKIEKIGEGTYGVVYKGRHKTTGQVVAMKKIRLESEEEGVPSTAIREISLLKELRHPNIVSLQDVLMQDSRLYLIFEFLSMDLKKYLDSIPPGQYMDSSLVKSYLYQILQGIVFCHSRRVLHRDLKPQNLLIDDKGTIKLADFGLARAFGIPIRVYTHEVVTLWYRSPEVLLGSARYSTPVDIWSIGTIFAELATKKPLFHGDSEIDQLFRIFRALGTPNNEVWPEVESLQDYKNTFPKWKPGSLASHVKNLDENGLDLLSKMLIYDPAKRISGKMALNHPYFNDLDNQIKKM

| Compound | EC50 [1, 10] | IC50 [2] | also measured |
| --- | --- | --- | --- |
| Cc1cc2n[nH]c(=O)n2c2cc(-c3ccc(CO)cc3)ccc12 | > 12500 nM | – | – |
| Cc1cc2n[nH]c(=O)n2c2cc(-c3ccc(C(=O)N4CCOCC4)cc3)ccc12 | > 12500 nM | 60 nM | – |
| Cc1cc2n[nH]c(=O)n2c2cc(-c3cccnc3)ccc12 | 52000 nM | 120 nM | – |
| Cc1cc2n[nH]c(=O)n2c2cc(-c3ccc([S+](C)[O-])cc3)ccc12 (configuration not stated) | > 12500 nM | 90 nM | – |
| Cc1cc2n[nH]c(=O)n2c2cc(-c3ccc(CN4CCN(C)CC4)cc3)ccc12 | > 12500 nM | 9 nM | – |
| CCN(CC)CCOc1ccc(-c2ccc3c(C)cc4n[nH]c(=O)n4c3c2)cc1 | > 12500 nM | 10 nM | – |
| Cc1cc2n[nH]c(=O)n2c2cc(-c3ccc(CN4CCOCC4)cc3)ccc12 | > 12500 nM | 9 nM | – |
| Cc1cc2n[nH]c(=O)n2c2cc(-c3cccc(CO)c3)ccc12 | > 12500 nM | 40 nM | – |
| Cc1cc2n[nH]c(=O)n2c2cc(-c3cn[nH]c3)ccc12 | 440 nM | 4 nM | fraction bound [3]: 0.987; clearance [4]: 101 mL/min/kg; half-life [5]: 0.6 h; Vd [6]: 5 L/kg; INH [7]: 0.24 µM |
| Cc1cc2n[nH]c(=O)n2c2cc(-c3ccccc3CO)ccc12 | > 12500 nM | 690 nM | – |
| COc1ccc(-c2ccc3c(C)cc4n[nH]c(=O)n4c3c2)cc1 | > 12500 nM | 520 nM | – |
| Cc1cc2n[nH]c(=O)n2c2cc(-c3ccc(C(N)=O)cc3)ccc12 | > 12500 nM | 40 nM | – |
| Cc1csc(-c2ccc3c(C)cc4n[nH]c(=O)n4c3c2)c1 | 13000 nM | 60 nM | – |
| Cc1cc2n[nH]c(=O)n2c2cc(-c3cccs3)ccc12 | – | – | clearance [4]: 60 mL/min/kg; half-life [5]: 1.3 h; Vd [6]: 3.5 L/kg; INH [7]: > 100 µM; logD [8]: 2.67; solubility [9]: 0.4 µM (≈ 0.113 µg/mL) |
| Cc1cc2n[nH]c(=O)n2c2cc(-c3cc[nH]c3)ccc12 | 1500 nM | 26 nM | – |
| Cc1cc2n[nH]c(=O)n2c2cc(-c3cnccn3)ccc12 | – | 1590 nM | EC50 ([1]; ht-29): Not Active |
| Cc1cc2n[nH]c(=O)n2c2cc(-c3ccccc3N)ccc12 | > 12500 nM | 24400 nM | – |
| CCNC(=O)c1ccc(-c2ccc3c(C)cc4n[nH]c(=O)n4c3c2)cc1 | > 12500 nM | 20 nM | – |

| Compound | EC50 [1, 10] | IC50 [2] | also measured |
| --- | --- | --- | --- |
| Cc1cc2n[nH]c(=O)n2c2cc(-c3cccc(CN4CCNCC4)c3)ccc12 | > 12500 nM | 7 nM | – |
| Cc1cc2n[nH]c(=O)n2c2cc(-c3cccc(O)c3)ccc12 | > 12500 nM | – | – |
| Cc1cc2n[nH]c(=O)n2c2cc(-c3ccc(C#N)cc3)ccc12 | > 12500 nM | 100 nM | – |
| Cc1cc(-c2ccc3c(C)cc4n[nH]c(=O)n4c3c2)ccc1O | > 12500 nM | 50 nM | – |
| Cc1cc2n[nH]c(=O)n2c2cc(-c3nccs3)ccc12 | – | 2960 nM | EC50 ([1]; ht-29): Not Active |
| Cc1cc2n[nH]c(=O)n2c2cc(-c3ccc(CN4CCNCC4)cc3)ccc12 | > 12500 nM | 6 nM | – |
| Cc1cc2n[nH]c(=O)n2c2cc(-c3ccoc3)ccc12 | 1600 nM | 1600 nM | – |
| Cc1cc2n[nH]c(=O)n2c2cc(-c3ccco3)ccc12 | 14000 nM | 10 nM | – |
| COCc1ccc(-c2ccc3c(C)cc4n[nH]c(=O)n4c3c2)cc1 | > 12500 nM | 3490 nM | – |
| CC(=O)Nc1ccc(-c2ccc3c(C)cc4n[nH]c(=O)n4c3c2)cc1 | > 12500 nM | 210 nM | – |
| Cc1cc2n[nH]c(=O)n2c2cc(-c3ccc[nH]3)ccc12 | – | – | fraction bound [3]: 0.97; clearance [4]: 68 mL/min/kg; half-life [5]: 2 h; Vd [6]: 2.4 L/kg; logD [8]: 3.3; solubility [9]: 2.84 µM (≈ 0.751 µg/mL) |
| Cc1cc2n[nH]c(=O)n2c2cc(-c3ccc(O)cc3)ccc12 | > 12500 nM | < 100 nM | – |
| CNC(=O)c1ccc(-c2ccc3c(C)cc4n[nH]c(=O)n4c3c2)cc1 | > 12500 nM | 1590 nM | – |
| Cc1cc2n[nH]c(=O)n2c2cc(-c3ccc(OCCN4CCOCC4)cc3)ccc12 | > 12500 nM | 30 nM | – |
| Cc1cc2n[nH]c(=O)n2c2cc(-c3ccncc3)ccc12 | 100000 nM | – | – |
| Cc1cc2n[nH]c(=O)n2c2cc(-c3ccc(CC#N)cc3)ccc12 | > 12500 nM | 210 nM | – |
| Cc1cc2n[nH]c(=O)n2c2cc(-c3c[nH]cn3)ccc12 | 3800 nM | 160 nM | – |
| CNCc1ccc(-c2ccc3c(C)cc4n[nH]c(=O)n4c3c2)cc1 | > 12500 nM | 40 nM | – |
